Here are results for 1 compound from paper PMC9938201, “Neuroprotective and antioxidant properties of new quinolylnitrones in in vitro and in vivo cerebral ischemia models” (Scientific Reports, 2023).

In the experiment the target is T1, soybean lipoxygenase (LOX) (Glycine max, UniProt P08170).
T1 construct: gene LOX1.1
T1 sequence (P08170 1-839): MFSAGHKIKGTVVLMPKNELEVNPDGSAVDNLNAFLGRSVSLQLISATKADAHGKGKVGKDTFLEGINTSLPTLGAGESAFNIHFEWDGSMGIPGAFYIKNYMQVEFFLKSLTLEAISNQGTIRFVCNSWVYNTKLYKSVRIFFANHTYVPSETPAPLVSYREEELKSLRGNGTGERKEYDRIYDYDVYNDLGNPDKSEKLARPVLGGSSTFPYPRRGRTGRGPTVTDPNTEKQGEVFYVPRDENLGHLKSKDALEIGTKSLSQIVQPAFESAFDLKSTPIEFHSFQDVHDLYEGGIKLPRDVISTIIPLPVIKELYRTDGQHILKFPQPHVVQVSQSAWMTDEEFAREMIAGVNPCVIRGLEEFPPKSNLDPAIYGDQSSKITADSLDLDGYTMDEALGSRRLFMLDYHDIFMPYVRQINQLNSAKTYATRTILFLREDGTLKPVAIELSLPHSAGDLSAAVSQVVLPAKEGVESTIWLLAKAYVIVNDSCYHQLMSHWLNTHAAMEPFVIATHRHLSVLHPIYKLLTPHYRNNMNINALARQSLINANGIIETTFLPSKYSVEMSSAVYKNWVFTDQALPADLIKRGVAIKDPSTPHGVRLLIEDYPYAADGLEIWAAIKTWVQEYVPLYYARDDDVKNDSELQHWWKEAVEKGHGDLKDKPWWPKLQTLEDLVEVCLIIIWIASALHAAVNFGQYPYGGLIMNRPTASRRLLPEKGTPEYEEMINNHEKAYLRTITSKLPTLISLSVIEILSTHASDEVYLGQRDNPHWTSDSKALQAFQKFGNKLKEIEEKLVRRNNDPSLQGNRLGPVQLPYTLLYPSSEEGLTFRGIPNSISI
The experiment can be described thus: UV absorbance at […] nm, sodium linoleate oxidation by soybean LOX, pH […]. The class given is biochemical.

As usually defined, the IC50 is the concentration that gives 50% inhibition. Lower therefore signals inhibition by little substance. Consider `CC(C)(C)/[N+]([O-])=C/c1ccc2cccc(O)c2n1` [QN5], for which the IC50 turned out to be 5 µM.
